Tests used:
Assay type in all cases: physicochemical
[1] = 90% particle size distribution of bead mill wet-pulverized product, Mastersizer 2000 (Test Example 5); details: Mastersizer 2000, SDS aqueous dispersion
Description: The obtained slurry was wet-pulverized with a bead mill (DYNO-MILL nanodisperser research lab type, Willy A. Bachofen AG) and then filtered to obtain an anhydrate crystal (90% particle size distribution: 2.791 μm) of the compound represented by Formula (I). The 90% particle size distribution was measured by the method described in Test Example 5.
A 90% particle size distribution was measured according to the following method and conditions. • Measuring instrument: particle size distribution measuring apparatus (Mastersizer 2000, Malvern Panalytical Ltd) • Dispersion solvent: 0.1 g of sodium dodecyl sulfate (SDS) was dissolved in 1 L of water • Rotation speed: 2500 rpm • Ultrasound: 50% • Slurry concentration: adjusted between 10 to 20%

[2] = Stability testing of wet-kneaded vs untreated dry-pulverized product (Test Example 7)
Description: A standard sample of 5 ng/mL (corresponding to 5 ppm with respect to the sample solution) of the compound represented by Formula (ITI) was prepared by the following method. Step 1: About 20 mg of the compound represented by Formula (III) was weighed precisely, and a mixed solution of acetonitrile and water (4:1) was added to dissolve the compound to make exactly 100 mL. Step 2: One milliliter of the solution of Step 1 was accurately taken, and a mixed solution of acetonitrile and water (4:1) was added to make exactly 100 mL. Step 3: One milliliter of the solution of Step 2 was accurately taken, and a mixed solution of acetonitrile and water (4:1) was added to make exactly 100 mL. Step 4: Five milliliters of the solution of […] was accurately taken, and a mixed solution of acetonitrile and water (4:1) was added to make exactly 20 mL, thereby obtaining a standard solution. Step 1: A sample in an amount corresponding to 50 mg of the compound represented by Formula (I) or the like was added to a 50 mL volumetric flask. Step 2: To Step 1 was added 10 mL of water, and the mixture was irradiated with ultrasonic waves for 10 minutes to disintegrate the sample completely. The ultrasonic irradiation time was extended as necessary. Step 3: To Step 2 was added 25 mL of acetonitrile, and the mixture was irradiated with ultrasonic waves for 30 minutes. Step 4: After cooling, acetonitrile was added to make exactly 50 mL, a part of the liquid was centrifuged at 13000 rpm for 10 minutes, and the supernatant was used as a sample solution. An amount of the compound represented by Formula (III) was measured with a liquid chromatograph according to the following method and conditions. • Measuring instrument: LC/MS/MS (PM No. AES676) manufactured by Agilent Technologies, Inc. • Column: L-column 24.6×150 mm, 3 μm • Column temperature: constant temperature at near 35° C. • Mobile phase A: 10 mM ammonium acetate • Mobile phase B: acetonitrile for liquid chromatography • Feed of mobile phase: The mixing ratio of mobile phase A and mobile phase B was changed as shown in Table 14 to control concentration gradient. • Post runtime: 5 minutes • Flow rate: 0.5 mL/min (retention time of S202AA: about 9 minutes) • Injection amount: 5 μL • Sample cooler temperature: constant temperature at near 10° C. • Needle washing solution: acetonitrile for liquid chromatography • Ionization method: ESI • Scan type: MEM • Polarity: positive • Precursor ion: m/z=187.2 • Product ion: m/z=64.9 • Fragmentor: 120 • Collision energy: 33 • Capillary: 4000 V • Gas temperature: 350° C. • Gas flow rate: 12 L/min • Nebulizer: 40 psi • MS uptake time: 0 to 12 minutes (Calculation Formula) Content (ppm) of compound represented by Formula(III)=MS×P/100×(100−WS)/100×AT/AS×1/50×1/80000×1000000 (Mathematical formula 6) • MS: Weighing amount (mg) of compound represented by Formula (III) • P: Purity (%) of compound represented by Formula (III) • WS: Moisture (%) of compound represented by Formula (JII) • AS: Peak area of compound represented by Formula (III) obtained from standard solution • AT: Peak area of compound represented by Formula (III) obtained from sample solution (Results)

[3] = Stability testing, study of stabilizer / blending property test (Test Example 9)
Description: A blending property test was performed on the compound represented by Formula (I) or the like and an additive, and the amount of the compound represented by Formula (III) in the product stored over time was evaluated. The sample and additive used in Reference Example 4 were weighed and mixed uniformly with a mortar and a pestle. An appropriate amount of purified water was added to the mixture, and wet kneading was performed with a pestle. The resulting granulated product was sieved with a 20-mesh wire mesh, and dried at an aeration temperature of 60° C. for 30 minutes in an aeration dryer (TH-80, SATAKE CHEMICAL EQUIPMENT MFG., LTD.). Thereafter, the resulting product was further sieved with a 20-mesh wire mesh to obtain samples of Examples 10 to 14.
The samples of Examples 10 to 14 were subjected to a stability testing under a condition of 60° C. glass bottle closed (referred to as 60° C. closed in Table 17) and 40° C. glass bottle closed (referred to as 40° C. closed in Table 17) to evaluate the content of the compound represented by Formula (III).
The content of the compound represented by Formula (II) was confirmed in the same manner as in Test Example 7.

[4] = 40° C. glass bottle closed, 1 month
[5] = 40° C. glass bottle closed, 2 weeks
[6] = 40° C. glass bottle closed, 3 months
[7] = 60° C. glass bottle closed, 2 weeks

SMILES: C[C@@H](Cn1c(=O)[nH]/c(=N\c2ccc(Oc3ccccn3)cc2)n(Cc2ccc(Cl)cc2)c1=O)C(=O)O [Example 7]
- 90% particle size distribution [1]: 2.791 μm

SMILES: C[C@@H](Cn1c(=O)[nH]/c(=N\c2ccc(Oc3ccccn3)cc2)n(Cc2ccc(Cl)cc2)c1=O)C(=O)O [Reference Example 4]
- Content of compound represented by Formula (III), 40° C. glass bottle closed 1M [2, 4]: 17.2 ppm
- Content of compound represented by Formula (III), 40° C. glass bottle closed 2W [2, 5]: 10.7 ppm
- Content of compound represented by Formula (III), 40° C. glass bottle closed 3M [2, 6]: 23.9 ppm
- Content of compound represented by Formula (III), 40° C./75% RH glass bottle opened 1M ([2]; 40° C./75% RH glass bottle opened, 1 month): 13.1 ppm
- Content of compound represented by Formula (III), 40° C./75% RH glass bottle opened 2W ([2]; 40° C./75% RH glass bottle opened, 2 weeks): 9.4 ppm
- Content of compound represented by Formula (III), 40° C./75% RH glass bottle opened 3M ([2]; 40° C./75% RH glass bottle opened, 3 months): 19.7 ppm
- Content of compound represented by Formula (III), 60° C. glass bottle closed 2W [2, 7]: 10.9 ppm
- Content of compound represented by Formula (III), Initial ([2]; start of test): 3.0 ppm
- Amount of compound represented by Formula (III), 40° C. closed 1M [3, 4]: 17.2 ppm
- Amount of compound represented by Formula (III), 40° C. closed 2W [3, 5]: 10.7 ppm
- Amount of compound represented by Formula (III), 40° C. closed 3M [3, 6]: 23.9 ppm
- Amount of compound represented by Formula (III), 60° C. closed 2W [3, 7]: 10.9 ppm
- Amount of compound represented by Formula (III), Initial ([3]; start of test): 3.0 ppm

Source: patent US12570627B2, “Pharmaceutical composition in which production of impurities is suppressed” (Shionogi & Co., Ltd., priority 2020, dated 2026)
